Test results taken from article PMC8243516, “Inhibition of lysosomal phospholipase A2 predicts drug-induced phospholipidosis” (Journal of Lipid Research, 2021).
“Also recorded” adds a separate entry of the source. Like-named read-outs stand apart in the source and are kept apart here.

Experiments:
[1] = target: T1, recombinant mouse LPLA2 (PLA2G15) (Mus musculus, UniProt Q8VEB4); assay: Transacylase activity of LPLA2 (1-O-acyl-N-acetylsphingosine synthase, cell-free liposome assay); type: biochemical; conditions: read-out: LPLA2 IC50
T1 construct: purchased Proteos Inc. (Kalamazoo, MI)
T1 sequence (Q8VEB4 34-412): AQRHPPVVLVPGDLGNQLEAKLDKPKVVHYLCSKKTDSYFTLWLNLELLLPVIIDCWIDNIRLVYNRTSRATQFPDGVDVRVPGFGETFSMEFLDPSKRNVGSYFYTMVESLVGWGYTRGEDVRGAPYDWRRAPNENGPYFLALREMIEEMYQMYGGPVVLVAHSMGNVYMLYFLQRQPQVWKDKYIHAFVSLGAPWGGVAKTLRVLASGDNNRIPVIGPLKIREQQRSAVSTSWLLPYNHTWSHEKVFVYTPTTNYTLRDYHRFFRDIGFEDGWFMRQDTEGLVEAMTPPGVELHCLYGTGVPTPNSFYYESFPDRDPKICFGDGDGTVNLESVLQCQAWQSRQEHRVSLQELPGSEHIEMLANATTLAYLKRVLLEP

[2] = target: T2, LPLA2 (Mus musculus, UniProt Q8VEB4); assay: LPLA2 thermal stability measurement (SYPRO Orange Tm); type: binding; conditions: N=3 ± SD
T2 construct: purchased Proteos Inc. (Kalamazoo, MI)
T2 sequence (Q8VEB4 34-412): T1 sequence (Q8VEB4 34-412)

[3] = test system: MDCK cells
[4] = target: T2, LPLA2; assay: LPLA2 esterase assay with pNPB; type: biochemical; conditions: pNPB substrate, no liposomes
Protocol: pNPB was used to directly measure the activity of LPLA2. pNPB is a water-soluble substrate that can directly access the catalytic site in the absence of liposomes ([25]). A reaction mixture of pNPB (0.2 mM) and cationic amphiphilic compounds at varying concentrations in sodium citrate buffer (pH 4.5) was prepared and prewarmed to 37°C for 5 min in a total volume of 500 μl. The reaction was initiated by the addition of recombinant LPLA2 (5 μg). At predetermined times, 120 μl of the reaction mixture was transferred to a tube containing 120 μl of 0.2 M NaHCO3 and kept on ice. The cold reaction product was subsequently warmed to 37°C, and the absorbance of the reaction product, p-nitrophenoxide, was measured at 400 nm with a Beckman Du-640 spectrophotometer.

[5] = target: T3, LPLA2 binding to DOPC/sulfatide liposomes (Mus musculus, UniProt Q8VEB4); assay: Liposome LPLA2 cosedimentation assay; conditions: 150,000 g
T3 construct: purchased Proteos Inc. (Kalamazoo, MI)
T3 sequence (Q8VEB4 34-412): T1 sequence (Q8VEB4 34-412)

[6] = test system: MDCK cells; assay: LipidTOX red particle quantification by fluorescence microscopy; type: cell-based
[7] = target: T2, LPLA2; assay: LPLA2 transacylation activity toward p-NPB (1-O-butanoyl-N-acetylsphingosine formation); type: biochemical; conditions: 250 nM fosinopril; LPLA2, N-acetylsphingosine and p-NPB as monodispersion
[8] = cited from earlier work
[9] = test system: MDCK cells; assay: Screening phospholipidosis assay (LipidTOX Red / NucBlue Live fluorescence ratio); conditions: LipidTOX Red to NucBlue Live fluorescence ratio, 24 h, 15 μM
[10] = test system: phospholipidosis; conditions: phospholipidosis reported in vitro; Refs of Table 1; cited from earlier work
[11] = test system: phospholipidosis; conditions: phospholipidosis reported in vivo, species codes; Refs of Table 1; cited from earlier work
[12] = LPLA2 dependent 1-O-acyl N-acetylsphingosine synthase activity
[13] = 1-O-acyl N-acetylsphingosine synthase activity, pH 4.5, DOPC/sulfatide liposomes
[14] = ref Pubchem and chEMBL databases

Row | SMILES | (ΔTm)c-(ΔTm)d, difference in melting temperature of LPLA2 alone or in the presence of drug [2] | IC50 [1, 13] | IC50 [1, 12] | Ratio (15 μM) [3] | pKa (basic) [8, 14] | In Vitro PLD [10] | In Vivo PLD [11] | further results
1 | CC1(C)[C@@H](O)CC[C@]2(C)[C@H]3C(=O)C=C4[C@@H]5C[C@@](C)(C(=O)O)CC[C@]5(C)CC[C@@]4(C)[C@]3(C)CC[C@@H]12 [18 Beta-glycyrrhetinic acid] | 1.88 ± 0.6 °C | – | 2430 µM | 0.4 | – | – | – | –
2 | Cc1ccc2c(Cl)cc(Cl)c(O)c2n1 [5,7 Dichloro-8-hydroxy-2-methyl quinolone] | 1.88 ± 0.9 °C | 1180 µM | 1180 µM | 0.29 | – | – | – | –
3 | C1CCC(C(CC2CCCCN2)C2CCCCC2)CC1 (centres unmarked) [Perhexiline, 2-(2,2-dicyclohexylethyl) piperidine] | -0.12 ± 0.0 °C | 11.7 µM | – | – | 10.58 | Yes | H,R,M | –
4 | C[C@H]1[C@H]2CC[C@H]3[C@@H]4CC=C5C[C@@H](N(C)C)CC[C@]5(C)[C@H]4CC[C@]23CN1C [Conessin] | 0.20 ± 01 °C | – | 31.3 µM | 1.08 | – | – | – | –

More lines, main results first:

Row | (ΔTm)c-(ΔTm)d, difference in melting temperature of LPLA2 alone or in the presence of drug [2] | IC50 [1, 13] | SMILES | IC50 [1, 12] | Ratio (15 μM) [3] | pKa (basic) [8, 14] | In Vitro PLD [10] | In Vivo PLD [11] | further results
5 | -0.90 ± 0.1 °C | 0.18 µM | CCC(=O)O[C@@H](O[P@](=O)(CCCCc1ccccc1)CC(=O)N1C[C@H](C2CCCCC2)C[C@H]1C(=O)O)C(C)C [Fosinopril] | 0.181 µM | – | – | – | – | IC50 [1]: 0.18 µM; Inhibition of soluble esterase activity of LPLA2 [4]: no inhibition; Cosedimentation of liposomes and recombinant LPLA2 [5]: partially inhibited; Percent area ([6]; 325 nM): increases; Increase in LipidTOX Red particle number versus controls ([6]; 325 nM, 24 h): ~20 fold; LipidTOX Red staining ([6]; 24 h, versus non-treated control): significant increase; Cell number ([6]; versus non-treated control): No change; LipidTOX Red particle number (in words) ([6]; versus non-treated control): significant increase; also recorded: significantly increased; Mean fluorescence intensity (MFI) ([6]; versus non-treated control): significant increase; also recorded: increases; Inhibition of 1-O-butanoyl-N-acetylsphingosine formation [7]: no inhibition; pKa (basic) ([8]; ref Pubchem and chEMBL database): -4.4; Ratio (15 μM) [9]: 0.67
6 | 0 °C | 27.6 µM | CN(C)CCCN1c2ccccc2CCc2ccccc21 [Imipramine, (3-{2-azatricyclo[9.4.0.0^3,^8]pentadeca-1(15),3,5,7,11, 13-hexaen-2-yl}propyl)dimethylamine] | – | – | 9.2 | Yes | R | –
7 | -0.10 ± 0.0 °C | 39 µM | CN(C)CCCN1c2ccccc2Sc2ccccc21 [Promazine, dimethyl[3-(10H-phenothiazin-10-yl)propyl]amine] | – | – | 9.2 | Yes | R | –
8 | 1.08 ± 0.4 °C | 124 µM | O=C(NC1CCN(CCc2c[nH]c3ccccc23)CC1)c1ccccc1 [Indoramin, N-{1-[2-(1H-indol-3-yl)ethyl]piperidin-4-yl} benzamide] | – | – | 9.59 | Yes | R | –
9 | 0.11 ± 0.0 °C | 9.09 µM | OC1(c2ccc(Cl)c(C(F)(F)F)c2)CCN(CCCC(c2ccc(F)cc2)c2ccc(F)cc2)CC1 [Penfluridol, 1-[4,4-bis(4-fluorophenyl)butyl]-4-[4-chloro-3-(trifluoromethyl)phenyl]piperidin-4-ol] | – | – | 8.96 | – | Yes | Ratio (15 μM) [9]: 0.55
